EC50 data for two compounds are collected here from patent US8148375B2, “(Cyclopropylphenyl)phenyloxamides, method for the production thereof, and use of same as a medicament” (Sanofi-Aventis, priority 2007, dated 2012).

A word on the EC50: it is the concentration at which the effect is half-maximal.

In the assay the target is T1, GPCR GPR40 (Homo sapiens, UniProt O14842).
T1 construct: expressed in transfected cells; host or cells: HEK293
The assay is described as follows: In-vitro FLIPR assay with recombinant cells which express the GPCR GPR40. Particulars: agonist-induced intracellular Ca2+ change in recombinant HEK293 cells expressing GPR40; relative to 10 μM linoleic acid = 100%. The format is cell-based. On the procedure: In-vitro FLIPR Assay with Recombinant Cells which Express the GPCR GPR40
Function-testing assays were carried out by means of the FLIPR technique (“fluorescence imaging plate reader”, Molecular Devices Corp.). For this purpose, agonist-induced alterations in the intracellular concentration of Ca^2+ in recombinant HEK293 cells which express the GPCR GPR40 were determined.
For the investigations, cells were seeded in 96-well microtiter plates (60 000 cells/well) and left to grow overnight. The medium was removed and the cells were incubated in buffer which contained the fluorescent dye Fluo-4. After this loading with dye, the cells were washed, test substance was added and alterations in the intracellular Ca^2+ concentration were measured in the FLIPR instrument. Results have been depicted as percentage alteration relative to the control (0%: no test substance added; 100%: 10 μM reference agonist linoleic acid added) used to calculate dose/activity plots and EC50 values were determined.

T1 sequence (O14842 whole entry): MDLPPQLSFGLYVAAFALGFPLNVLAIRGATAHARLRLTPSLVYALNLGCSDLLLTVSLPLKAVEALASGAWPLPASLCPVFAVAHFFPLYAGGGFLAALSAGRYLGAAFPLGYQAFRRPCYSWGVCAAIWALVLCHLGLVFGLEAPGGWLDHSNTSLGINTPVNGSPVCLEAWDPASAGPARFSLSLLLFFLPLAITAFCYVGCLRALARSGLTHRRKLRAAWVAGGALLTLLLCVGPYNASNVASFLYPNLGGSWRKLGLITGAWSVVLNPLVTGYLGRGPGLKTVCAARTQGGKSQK

Take `O=C(Nc1ccc(C2CC2C(=O)O)cc1)C(=O)Nc1ccc(Cl)cc1C(F)(F)F` (centres unmarked) [Example 2]: the EC50 worked out at 700 nM.
For the compound `O=C(Nc1ccc(C2CC2C(=O)O)cc1)C(=O)Nc1cccc(Cl)c1Cl` (centres unmarked) [Example 3], the EC50 came to 800 nM.
